# Results published in PubChem BioAssay (NCI).
# Where “and” joins values, the source holds several entries; their conditions need not be identical. Equal entries are not always repeated.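 Test compounds were applied to cells in 96-well plates for 48 hours at 5 doses. Abbreviation: GI50, concentration required for 50% inhibition of growth. TGI is the concentration that stops growth completely.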
# Legend:
# Assay in all cases: NCI anticancer screen, dose series, 48 h
# HOP-92 NSCLC = system: HOP-92 NSCLC
# SF-295 CNS = system: SF-295 CNS
# UACC-257 melanoma = system: UACC-257 melanoma
# RPMI-8226 leukemia = system: RPMI-8226 leukemia
# CCRF-CEM leukemia = system: CCRF-CEM leukemia
# SK-OV-3 ovarian = system: SK-OV-3 ovarian
# NCI/ADR-RES ovarian = system: NCI/ADR-RES ovarian
# M14 melanoma = system: M14 melanoma
# NCI-H522 lung = system: NCI-H522 lung
# U251 CNS = system: U251 CNS
SMILES,GI50 (HOP-92 NSCLC),TGI (HOP-92 NSCLC),GI50 (SF-295 CNS),TGI (SF-295 CNS),GI50 (UACC-257 melanoma),TGI (UACC-257 melanoma),GI50 (RPMI-8226 leukemia),TGI (RPMI-8226 leukemia) [µM],GI50 (CCRF-CEM leukemia),TGI (CCRF-CEM leukemia) [µM],GI50 (SK-OV-3 ovarian),TGI (SK-OV-3 ovarian),GI50 (NCI/ADR-RES ovarian),TGI (NCI/ADR-RES ovarian),GI50 (M14 melanoma),TGI (M14 melanoma),GI50 (NCI-H522 lung),TGI (NCI-H522 lung),GI50 (U251 CNS),TGI (U251 CNS) [µM]
CC(c1ccccc1)[C@@H](C(=O)Nc1ccc(I)cc1F)N1C(=O)N[C@H](c2ccc(OC[C@H](O)CO)cc2)C1=O (stereo partly specified),0.552 µM,7.03 µM,> 25 µM,> 25 µM,0.052 µM,0.892 µM,11.9 µM,> 25,14.3 µM,> 25,> 25 µM,> 25 µM,> 25 µM,> 25 µM,0.0707 µM,5.74 µM,> 17.8 µM,> 25 µM,7.86 µM,> 25
Cc1ccc(Cl)cc1NC(=O)c1cc2ccccc2cc1O,0.222 µM,0.724 µM,1.14 µM,3.57 µM,0.277 µM,0.909 µM,0.106 µM,0.354,0.733 µM,2.84,0.406 µM,2.95 µM,0.266 µM,1.27 µM,0.325 µM,1.21 µM,0.231 µM,0.719 µM,0.319 µM,4.12
COc1ccc(Cl)cc1Nc1nc(C(F)(F)F)ccc1C(=O)N/N=C/c1cccnc1,2.42 µM,28.3 µM,1.28 µM,9.52 µM,3.93 µM,9.88 µM,2.28 µM,> 100,0.624 µM,> 100,2.47 µM,> 100 µM,3.8 µM,> 100 µM,2.42 µM,> 100 µM,2.47 µM,74.7 µM,2.4 µM,> 100
Nc1nnnc2nc[nH]c12,0.622 µM,> 100 µM,0.78 µM,> 29.8 µM,0.729 µM,14 µM,0.245 µM,> 85.8,0.72 µM,> 100,0.327 µM,6.22 µM,0.742 µM,> 26 µM,0.568 µM,4.02 µM,2.02 µM,17 µM,2.39 µM,> 100
COc1cccc(C2=C(c3cn(C)c4cc(F)ccc34)C(=O)NC2=O)c1,> 25 µM,> 25 µM,> 18.3 µM,> 25 µM,> 25 µM,> 25 µM,> 17.4 µM,> 25,9.63 µM,> 25,> 25 µM,> 25 µM,18.2 µM,> 25 µM,24.6 µM,> 25 µM,> 15.9 µM,> 25 µM,> 17.2 µM,> 25
Nc1cc(C(F)(F)F)c(-c2cc(N3CCOCC3)nc(N3CCOCC3)n2)cn1,0.162 µM and 0.0723 µM,1.17 µM and 0.617 µM,0.463 µM and 0.613 µM,2.51 µM and 4.26 µM,0.59 µM and 0.417 µM,> 7.31 µM and 4.25 µM,1.31 µM and 1.47 µM,> 23.1,1.56 µM and 1.49 µM,> 100,0.235 µM and 0.654 µM,1.58 µM and 2.94 µM,0.753 µM and 0.856 µM,3.45 µM and > 21.5 µM,0.669 µM and 0.644 µM,4.04 µM and 3.88 µM,0.504 µM and 0.29 µM,3.93 µM and 1.64 µM,1.51 µM and 1.78 µM,> 25
C(=Nc1cnc2ccccc2c1)c1ccc2ccccc2n1,,> 100 µM,,> 100 µM,,> 100 µM,,> 100,,> 100,,> 100 µM,,> 100 µM,,> 100 µM,,> 100 µM,,> 100
C=C1C(=O)O[C@H]2[C@H]1CC/C(Cn1cc(-c3cccc(Cl)c3)nn1)=C\CC[C@@]1(C)O[C@@H]21,0.257 µM,0.842 µM,3.41 µM,13 µM,1.42 µM,2.8 µM,0.506 µM,3.36,0.2 µM,0.685,3.67 µM,11.2 µM,2.39 µM,8.39 µM,0.798 µM,2.2 µM,0.291 µM,1.09 µM,1.61 µM,3.01
O=Cc1c(-c2ccccc2)[nH]c2ccccc2c1=O,,> 100 µM,,> 100 µM,,> 100 µM,,85.6,,,,> 100 µM,,> 100 µM,,> 100 µM,,> 100 µM,,> 100
Cc1nc(-c2cnc(NC(C)C)n(C)c2=O)ccc1Oc1ccnc(-c2cnn(C)c2)c1,7.44 µM,53.1 µM,9.14 µM,90.3 µM,12 µM,55.1 µM,8.49 µM,81.7,12.1 µM,> 100,23.5 µM,> 100 µM,8.35 µM,> 100 µM,5.72 µM,33.4 µM,5.77 µM,71.9 µM,15.6 µM,> 100
COc1ccccc1/C=C/C1=C(C)CCC(c2ccccc2OC)C1C (stereo unspecified),0.632 µM,> 100 µM,< 0.0201 µM,1.53 µM,,> 89.8 µM,0.0449 µM,> 100,0.0684 µM,> 100,0.382 µM,> 100 µM,0.105 µM,,0.16 µM,0.655 µM,0.113 µM,,0.132 µM,22.5
CC[C@]1(O)CC2CN(CCc3c([nH]c4ccccc34)[C@@](C(=O)OC)(c3cc4c(cc3OC)N(C=O)[C@H]3[C@@](O)(C(=O)OC)[C@H](OC(C)=O)[C@]5(CC)C=CCN6CC[C@]43[C@@H]65)C2)C1 (stereo partly specified),,> 50 µM,< 0.005 µM,1.35 µM,< 0.005 µM,> 38.4 µM,< 0.005 µM,17.8,< 0.005 µM,,< 0.005 µM,0.0185 µM,0.698 µM,> 13.3 µM,0.00632 µM,0.679 µM,< 0.005 µM,< 0.005 µM,< 0.005 µM,
CCOc1ccc2c(c1)CN(Cc1ccc(Cl)cc1)CO2,8.63 µM,36.8 µM,13 µM,27.9 µM,16 µM,35.8 µM,19.9 µM,46.4,29.9 µM,98.5,29.8 µM,> 100 µM,19.4 µM,48.9 µM,,,15.9 µM,34 µM,16.1 µM,33.2
